Reference: US5885993A, “Remedy for pancreatitis” (Nippon Shinyaku Company, Limited, priority 1995, dated 1999)

Columns and labels:
Cn+St pancreatitis = experiment: Antipancreatitis activity: severity of pancreatitis and wet weight of pancreas in Cn+St pancreatitis (cerulein plus water immersion stress); format: in vivo, SD rats (female, 12-week-old); details: for Wet weight of pancreas / Severity of pancreatitis: oral gavage 18 and 2 hours before first Cn dosing, mean ± S.E.; for Severity of pancreatitis: score
Description: The antipancreatitis action of the compound of the invention was confirmed in a test using rats as described hereinafter. The test protocol used is the most popular of all of the test protocols available for the evaluation of therapeutic drugs for pancreatitis in animals. A high correlation has been reported to hold between the antipancreatitis effect found by this test and the clinical effect in man [Yamaguchi et al.: Association of stresses in the onset of pancreatitis, Shoukakika, 18(2), 186-196, 1994). Female 12-week-old SD rats were used in groups of 10 individuals. After 40 μg/kg of cerulein (Cn) was administered intraperitoneally, the animals were placed in stress cages and immersed down to the xiphoid in a constant-temperature bath at 23° C. One hour later, 40 μg/kg of Cn was administered i.p. again and the stress loading was continued. After 5 hours of stress loading, the animals were sacrificed and laparotomized and the severity of pancreatitis was scored in accordance with the evaluation criteria proposed by Yamaguchi et al. (Gastroenterology 98: 1682-1688, 1990). In addition, the pancreas was excised and its wet weight was determined. As the test compounds, compounds 1, 2, 3, and 4 were administered by oral gavage 18 and 2 hours before the first Cn dosing. As a control compound, irsogladine maleate was used. Statistical significance was tested by Wilcoxon rank sum test for the severity and by Dunnett test for the wet weight.

[1] = tested on: cerulein-induced acute pancreatitis; details: Proceedings of the 36th Congress of The Japanese Society of Gastroenterology, p.266; cited from earlier work
male mice (BALB/c) = experiment: Acute toxicity; format: in vivo; details: monitored for 1 week
Protocol: Six-week-old male mice (BALB/c) fasted in advance was orally dosed with 1 g/kg or 500 mg/kg of the test compound and the time course of mortality was monitored for 1 week. The test compound was suspended in 0.5% aqueous methylcellulose solution and administered in the dose of 500 or 1,000 mg/20 ml/kg. […] The toxicity of the compound of the invention is, thus, extremely low.

[2] = Effect on body weight gain; format: in vivo, SD rats (male, 6-week-old); details: 1000 mg/kg orally daily for 2 consecutive weeks
Protocol: Compound 1 was administered orally to 6-week-old male SD rats (in groups of 5) daily to investigate its effect on body weight gain.

SMILES	Wet weight of pancreas (Cn+St pancreatitis; 10 mg/kg) [g/kg]	Severity of pancreatitis (Cn+St pancreatitis; 10 mg/kg)	Wet weight of pancreas (Cn+St pancreatitis; 30 mg/kg) [g/kg]	Severity of pancreatitis (Cn+St pancreatitis; 30 mg/kg)	Wet weight of pancreas (Cn+St pancreatitis; 100 mg/kg) [g/kg]	Severity of pancreatitis (Cn+St pancreatitis; 100 mg/kg)	minimal effective dose (Cn+St pancreatitis; Rattus norvegicus, only at this dose (10, 30, 100 mg/kg tested), oral, read-out: dose showing a significant reducing effect on the severity of pancreatitis) [mg/kg]	effect on wet weight (swelling) of pancreas relative to comparator, in words (Cn+St pancreatitis; compound of the invention versus control compound irsogladine maleate)	inhibitory activity in Cn+St pancreatitis (in words) (Cn+St pancreatitis; rat model, cerulein plus water immersion stress loading)	efficacy in Cn-induced acute pancreatitis (in words) [1]	Wet weight of pancreas (Cn+St pancreatitis; 3 mg/kg) [g/kg]	Severity of pancreatitis (Cn+St pancreatitis; 3 mg/kg)	mortality (male mice (BALB/c); 1 g/kg oral)	Wet weight of pancreas (Cn+St pancreatitis; 1 mg/kg) [g/kg]	Severity of pancreatitis (Cn+St pancreatitis; 1 mg/kg)	mortality (male mice (BALB/c); 500 mg/kg oral)	effect on body weight gain [2]
Nc1nc(N)nc(-c2cc(Cl)ccc2Cl)n1.O=C(O)/C=C\C(=O)O [irsogladine maleate, 2,4-diamino-6-(2,5-dichlorophenyl)-1,3,5-triazine maleate, reference compound]	10.09 ± 0.51	2.2 ± 0.33	8.52 ± 0.60	1.5 ± 0.27	7.14 ± 0.58	0.4 ± 0.22	100	almost equivalent to the compound of the invention in the effect on wet weight of pancreas	only moderate activity	proved efficacious							
Nc1nc(-c2cc(Cl)ccc2Cl)nc(N2C[C@H](O)C[C@H]2CO)n1 [Compound 3, 2-Amino-4-(2,5-dichlorophenyl)-6-[(2S,4R)-2-hydroxymethyl-4-hydroxy-1-pyrrolidinyl]-1,3,5-triazine]	6.67 ± 0.37	0.7 ± 0.08	5.96 ± 0.70	0.6 ± 0.08							7.58 ± 0.36	1.4 ± 0.10	no death was encountered				
Nc1nc(-c2cc(Cl)ccc2Cl)nc(N2CCOCC2)n1 [Compound 4, 2-Amino-4-(2,5-dichlorophenyl)-6-morpholino-1,3,5-triazine]	7.33 ± 0.23	0.9 ± 0.28	6.18 ± 0.53	0.5 ± 0.22	7.49 ± 0.47	0.5 ± 0.17							no death was encountered				
Cl.Nc1nc(-c2cc(Cl)ccc2Cl)nc(N2CCC[C@H]2CO)n1 [Compound 2, (S)-2-amino-4-(2,5-dichlorophenyl)-6-(2-hydroxymethyl-1-pyrrolidinyl)-1,3,5-triazine hydrochloride]	7.31 ± 0.64	0.4 ± 0.16	4.35 ± 0.32	0.1 ± 0.03							6.83 ± 0.48	0.8 ± 0.29		6.86 ± 0.41	1.3 ± 0.30	no death was encountered	
Nc1nc(-c2cc(Cl)ccc2Cl)nc(N(CCO)CCO)n1 [Compound 1, 2-Amino-4-[N,N-bis(2-hydroxyethyl)amino]-6-(2,5-dichlorophenyl)-1,3,5-triazine]	9.33 ± 0.66	1.4 ± 0.22	7.13 ± 0.57	0.6 ± 0.22	5.65 ± 0.40	0.3 ± 0.21							no death was encountered				did not affect the body weight gain of rats
